Read-outs that look alike come from different tables or passages of the source.

This experiment has as its system Aβ1-42 production. Put plainly: Cellular assay for inhibition of Aβ1-42 production (H4 APP751 SWE clone 8.20). In kind it is cell-based. The following applies: H4 APP751 SWE clone 8.20 cells, 19 h incubation. In outline: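 Aβ42 level read with antibodies 565, against the Aβ42 neoepitope, and N-terminal 26D6, incubated overnight at 4° C, after exposure of H4 APP751 SWE clone 8.20 cells to compound for 19 h at 37° C. Medium was DMEM plus 0.0125% BSA, 1.5×10^4 cells/well. IC50 values come from curve fitting.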

The mark [1] stands for this setting: 19 h, read-out: Activity Rating (based on Aβ42 cellular IC50 values).
The mark [2] stands for this setting: 19 h, read-out: Activity Rating (Aβ42 cellular IC50, given as a number).

Usually IC50 stands for the concentration that inhibits the measured activity by half. As to `COc1cc(Nc2nc3n(n2)CCC(F)(F)CC3c2ccc(F)cc2)ccc1-n1cnc(Cl)c1` (centres unmarked) [Example 139, N-(4-(4-chloro-1H-imidazol-1-yl)-3-methoxyphenyl)-7,7-difluoro-9-(4-fluorophenyl)-6,7,8,9-tetrahydro-5H-[1,2,4]triazolo[1,5-a]azepin-2-amine 2,2,2-trifluoroacetate], under setting [1], the 50% inhibitory concentration (IC50) lay within 10 to 100 nM. For `COc1cc(Nc2nc3n(n2)CCCCC3c2ccc(OC(F)(F)F)cc2)c(F)cc1-n1cnc(C)n1` (centres unmarked) [Example 175, N-(2-fluoro-5-methoxy-4-(3-methyl-1H-1,2,4-triazol-1-yl)phenyl)-9-(4-(trifluoromethoxy)phenyl)-6,7,8,9-tetrahydro-5H-[1,2,4]triazolo[1,5-a]azepin-2-amine], under setting [1], the half-inhibitory concentration (IC50) is 10 to 100 nM. For the compound `COc1cc(Nc2nc3n(n2)CC=CCC3c2ccc(F)cc2)ccc1-n1cnc(Cl)c1` (centres unmarked) [Example 1, (Z)—N-(4-(4-chloro-1H-imidazol-1-yl)-3-methoxyphenyl)-9-(4-fluorophenyl)-8,9-dihydro-5H-[1,2,4]triazolo[1,5-a]azepin-2-amine], the IC50 under setting [1] was < 10 nM. `Cc1ncnn1-c1ccc(Nc2nc3n(n2)CCCC[C@H]3c2ccc(F)cc2)cc1F` (single isomer, unassigned) [Example 94]: the half-inhibitory concentration (IC50) under setting [1] fell in the range of 10 to 100 nM. Turning to `Cc1ncnn1-c1ccc(Nc2nc3n(n2)CCCC3c2ccc(F)cc2)cc1F` (centres unmarked) [Example 13, N-(3-fluoro-4-(5-methyl-1H-1,2,4-triazol-1-yl)phenyl)-8-(4-fluorophenyl)-5,6,7,8-tetrahydro-[1,2,4]triazolo[1,5-a]pyridin-2-amine], the half-inhibitory concentration (IC50) under setting [1] lay within 10 to 100 nM.

Turning to `COc1cc(Nc2nc3n(n2)CCCCC3c2cc(F)cc(F)c2)ccc1-n1cnc(Cl)c1` (centres unmarked) [Example 38, N-(4-(4-chloro-1H-imidazol-1-yl)-3-methoxyphenyl)-9-(3,5-difluorophenyl)-6,7,8,9-tetrahydro-5H-[1,2,4]triazolo[1,5-a]azepin-2-amine], the half-inhibitory concentration (IC50) under setting [1] is < 10 nM. With `Cc1ncnn1-c1ccc(Nc2nc3n(n2)CC[C@@H](O)C[C@@H]3c2ccc(F)cc2)cc1F` (relative stereo) [Example 157, rel-(7S,9R)-2-(3-fluoro-4-(5-methyl-1H-1,2,4-triazol-1-yl)phenylamino)-9-(4-fluorophenyl)-6,7,8,9-tetrahydro-5H-[1,2,4]triazolo[1,5-a]azepin-7-ol 2,2,2-trifluoroacetate], the half-inhibitory concentration (IC50) under setting [1] fell in the range of 10 to 100 nM. For `COc1cc(Nc2cc3n(n2)C(c2ccc(F)cc2)CCC3)ccc1-n1cnc(Cl)c1` (centres unmarked) [Example 90, N-(4-(4-chloro-1H-imidazol-1-yl)-3-methoxyphenyl)-7-(4-fluorophenyl)-4,5,6,7-tetrahydropyrazolo[1,5-a]pyridin-2-amine], the IC50 under setting [2] stood at 12 nM. In the case of `COc1cc(Nc2nc3n(n2)CC[C@@H](O)C[C@@H]3c2ccc(F)cc2)ccc1-n1cnc(Cl)c1` (relative stereo) [Example 66, rel-(7S,9R)-2-(4-(4-chloro-1H-imidazol-1-yl)-3-methoxyphenylamino)-9-(4-fluorophenyl)-6,7,8,9-tetrahydro-5H-[1,2,4]triazolo[1,5-a]azepin-7-ol 2,2,2-trifluoroacetate], the IC50 under setting [1] was < 10 nM. `COc1cc(Nc2nc3n(n2)CCCC[C@@H]3c2ccccc2F)ccc1-n1cnc(Cl)c1` (single isomer, unassigned) [Example 59]: the IC50 under setting [1] was < 10 nM. Turning to `Cc1ncnn1-c1ccc(Nc2nc3n(n2)CCCCC3c2ccc(F)cc2)cc1F` (centres unmarked) [Example 93, N-(3-fluoro-4-(5-methyl-1H-1,2,4-triazol-1-yl)phenyl)-9-(4-fluorophenyl)-6,7,8,9-tetrahydro-5H-[1,2,4]triazolo[1,5-a]azepin-2-amine], under setting [1], the IC50 was 10 to 100 nM. Same read-out and setting: the figure for `COc1cc(Nc2nc3c(s2)CCCC3(O)c2ccccc2)ccc1-n1cnc(C)n1` (centres unmarked) [Example 81, 2-(3-methoxy-4-(3-methyl-1H-1,2,4-triazol-1-yl)phenylamino)-4-phenyl-4,5,6,7-tetrahydrobenzo[d]thiazol-4-ol] is 10 to 100 nM. Take `COc1cc(Nc2nc3n(n2)C[C@H](O)CC[C@H]3c2ccc(F)cc2)ccc1-n1cnc(Cl)c1` (relative stereo) [Example 62, rel-(6R,9S)-2-(4-(4-chloro-1H-imidazol-1-yl)-3-methoxyphenylamino)-9-(4-fluorophenyl)-6,7,8,9-tetrahydro-5H-[1,2,4]triazolo[1,5-a]azepin-6-ol 2,2,2-trifluoroacetate]: under setting [1], the IC50 is < 10 nM. For `Cc1ncn(-c2ccc(Nc3nc4n(n3)CCCC[C@H]4c3ccc(OC(F)(F)F)cc3)cc2F)n1` (single isomer, unassigned) [Example 97], the half-inhibitory concentration (IC50) under setting [2] stood at 9 nM. Regarding `COc1cc(Nc2nc3n(n2)CCCCC3c2ccc(Cl)nc2)ccc1-n1cnc(Cl)c1` (centres unmarked) [Example 41, N-(4-(4-chloro-1H-imidazol-1-yl)-3-methoxyphenyl)-9-(6-chloropyridin-3-yl)-6,7,8,9-tetrahydro-5H-[1,2,4]thiazolo[1,5-a]azepin-2-amine 2,2,2-trifluoroacetate], under setting [1], the half-inhibitory concentration (IC50) is 10 to 100 nM. On to `COc1cc(Nc2nc3n(n2)CCCC[C@H]3c2cc(F)cc(F)c2)ccc1-n1cnc(Cl)c1` (single isomer, unassigned) [Example 39], for which, under setting [1], the IC50 was < 10 nM. For `Cc1ncn(-c2c(F)cc(Nc3nc4n(n3)CCCCC4c3ccc(OC(F)(F)F)cc3)cc2F)n1` (centres unmarked) [Example 108, N-(3,5-difluoro-4-(3-methyl-1H-1,2,4-triazol-1-yl)phenyl)-9-(4-(trifluoromethoxy)phenyl)-6,7,8,9-tetrahydro-5H-[1,2,4]triazolo[1,5-a]azepin-2-amine], under setting [1], the IC50 was in the range of 10 to 100 nM. As for “(S)—N-(2-fluoro-5-methoxy-4-(3-methyl-1H-1,2,4-triazol-1-yl)phenyl)-9-(4-(2,2,2-trifluoroethoxy)phenyl)-6,7,8,9-tetrahydro-5H-[1,2,4]triazolo azepin-2-amine [Example 117]”, for the setting “read-out: Activity Rating (based on Aβ42 cellular IC50 values)”, the IC50 is 10 to 100 nM. With `COc1cc(Nc2nc3n(n2)CC[C@](C)(O)C[C@@H]3c2ccc(F)cc2)ccc1-n1cnc(Cl)c1` (single isomer, unassigned) [Example 149, 2,2,2-trifluoroacetate], the IC50 under setting [2] was found to be 2 nM. As for `Cc1ncn(-c2ccc(Nc3nc4n(n3)CC[C@](C)(O)C[C@@H]4c3ccc(F)cc3)cc2F)n1` (relative stereo) [Example 154, rel-(7R,9R)-2-(3-fluoro-4-(3-methyl-1H-1,2,4-triazol-1-yl)phenylamino)-9-(4-fluorophenyl)-7-methyl-6,7,8,9-tetrahydro-5H-[1,2,4]triazolo[1,5-a]azepin-7-ol 2,2,2-trifluoroacetate], the concentration for half-maximal inhibition (IC50) under setting [1] was 10 to 100 nM.

`COc1cc(Nc2nc3n(n2)CCC(=O)CC3c2ccc(F)cc2)ccc1-n1cnc(Cl)c1` (centres unmarked) [Example 137, 2-(4-(4-chloro-1H-imidazol-1-yl)-3-methoxyphenylamino)-9-(4-fluorophenyl)-8,9-dihydro-5H-[1,2,4]triazolo[1,5-a]azepin-7(6H)-one 2,2,2-trifluoroacetate]: under setting [1], the IC50 is < 10 nM. Regarding `COc1cc(Nc2nc3n(n2)CCCCC3c2ccc(OC(C)C)cc2)ccc1-n1cnc(Cl)c1` (centres unmarked) [Example 102, N-(4-(4-chloro-1H-imidazol-1-yl)-3-methoxyphenyl)-9-(4-isopropoxyphenyl)-6,7,8,9-tetrahydro-5H-[1,2,4]triazolo azepin-2-amine], the IC50 under setting [1] is < 10 nM. As for `COc1cc(Nc2nc3n(n2)CC=CC[C@@H]3c2ccc(F)cc2)ccc1-n1cnc(Cl)c1` (single isomer, unassigned) [Example 3], under setting [1], the IC50 was < 10 nM.

For the origin of these results see US8349880B2, “Bicyclic compounds for the reduction of beta-amyloid production” (Bristol-Myers Squibb Company, priority 2009, dated 2013).
